Test results from publication PMC6629785, “Synthesis and Pharmacological Evaluation of a Novel Peptide Based on Anemonia sulcata BDS-I Toxin as a New KV3.4 Inhibitor Exerting a Neuroprotective Effect Against Amyloid-β Peptide” (Frontiers in Chemistry, 2019).
Ends that are not written are not given here.

System: caspase-3 activation
Assay: Western blot of cleaved (activated) caspase-3 after Aβ1−42 exposure
Type: cell-based, Rat
Conditions: peptide 100 nM, 30 min pre-treatment; Aβ1−42 oligomers 5 μM, 24 h; western blot densitometry, 3 sessions
Description: Rat pheochromocytoma cells (PC-12 cells) were grown as previously described (Pannaccione et al., [2005], [2007]). For all the experiments, cells were seeded at low density on glass cover-slips coated with poly-L-lysine (50 μg/ml). Differentiation of PC-12 cells was achieved by treatment with neuronal growth factor (NGF) 2.5 S (50 ng/ml) for 7–9 days (Greene and Tischler, [1976]). For electrophysiological experiments, cells were seeded on glass cover-slips and used after 7–9 days of NGF. […]
NGF-differentiated PC-12 and CHO cells were washed in phosphate buffered saline (PBS) and collected by gentle scraping in ice-cold RIPA buffer containing in mM: 50 Tris pH 7.4, 100 NaCl, 1 EGTA, 1 PMSF, 1 sodium orthovanadate, 1 NaF, 0.5% NP-40, and 0.2% SDS supplemented with protease inhibitor cocktail II. […] The protein content of resulting supernatant was determined using the Bradford reagent. […]
The peptide used in our study was synthesized by INBIOS (Pozzuoli, Naples, Italy) using the Aβ1−42 sequence of human APP [UniProtKB-P05067 (A4_HUMAN)]. The purity of the peptide was assessed by high-performance liquid chromatography (>95% pure) and the amino acid composition was verified by mass spectrometry. […] The pre-aggregated preparation of Aβ oligomers was analyzed in SDS-PAGE using the rabbit monoclonal anti-Aβ on precast gels 4-20%. […]

Row | Substance | effect on Aβ1−42-induced caspase-3 activation
1 | H-GSAFAPAA-OH [BDS-I[1-8scr]] | did not
2 | AAPAFASG [BDS-I[1-8]] | prevented
